From the kinase profiling compilation of Christmann-Franck et al. (2016)

Tests used:
Assay in all cases: radiometric filter-binding kinase assay, Kinase HotSpot
Settings in all cases: compound 0.5 µM; ATP 10 µM
[1] = molecular target: EPHA1 (human) (UniProt P21709)
[2] = molecular target: CAMK1 (human) (UniProt Q14012)
[3] = molecular target: PTK6 (human) (UniProt Q13882)
[4] = molecular target: MST1R (human) (UniProt Q04912)
[5] = molecular target: CSNK1G1 (human) (UniProt Q9HCP0)
[6] = molecular target: MAPK8 (human) (UniProt P45983)
[7] = molecular target: PRKCI (human) (UniProt P41743)
[8] = molecular target: HIPK1 (human) (UniProt Q86Z02)
[9] = molecular target: IRAK1 (human) (UniProt P51617)
[10] = molecular target: GRK6 (human) (UniProt P43250)
[11] = molecular target: EPHA2 (human) (UniProt P29317)
[12] = molecular target: MAP3K5 (human) (UniProt Q99683)
[13] = molecular target: BRSK1 (human) (UniProt Q8TDC3)
[14] = molecular target: EPHA7 (human) (UniProt Q15375)
[15] = molecular target: SYK (human) (UniProt P43405)
[16] = molecular target: FER (human) (UniProt P16591)
[17] = molecular target: PRKCB1 (human) (UniProt P05771)
[18] = molecular target: NEK6 (human) (UniProt Q9HC98)
[19] = molecular target: EPHB1 (human) (UniProt P54762)
[20] = molecular target: NEK7 (human) (UniProt Q8TDX7)
[21] = molecular target: ULK2 (human) (UniProt Q8IYT8)
[22] = molecular target: CSNK2A1 (human) (UniProt P68400)
[23] = molecular target: RPS6KB1 (human) (UniProt P23443)
[24] = molecular target: LTK (human) (UniProt P29376)
[25] = molecular target: SRMS (human) (UniProt Q9H3Y6)
[26] = molecular target: MAPK1 (human) (UniProt P28482)
[27] = molecular target: CHUK (human) (UniProt O15111)
[28] = molecular target: DAPK1 (human) (UniProt P53355)
[29] = molecular target: STK25 (human) (UniProt O00506)
[30] = molecular target: CAMK1G (human) (UniProt Q96NX5)
[31] = molecular target: NEK4 (human) (UniProt P51957)
[32] = molecular target: DDR2 (human) (UniProt Q16832)
[33] = molecular target: CDK5 CDK5R1 p25 (human) (UniProt Q00535+Q15078)
[34] = molecular target: NEK3 (human) (UniProt P51956)
[35] = molecular target: ACVR1 (human) (UniProt Q04771)
[36] = molecular target: TAOK1 (human) (UniProt Q7L7X3)
[37] = molecular target: EPHA3 (human) (UniProt P29320)
[38] = molecular target: HIPK2 (human) (UniProt Q9H2X6)
[39] = molecular target: PRKD2 (human) (UniProt Q9BZL6)
[40] = molecular target: MARK2 (human) (UniProt Q7KZI7)
[41] = molecular target: CAMK2D (human) (UniProt Q13557)

Sequence of NEK4 (human) (P51957 whole entry, looked up): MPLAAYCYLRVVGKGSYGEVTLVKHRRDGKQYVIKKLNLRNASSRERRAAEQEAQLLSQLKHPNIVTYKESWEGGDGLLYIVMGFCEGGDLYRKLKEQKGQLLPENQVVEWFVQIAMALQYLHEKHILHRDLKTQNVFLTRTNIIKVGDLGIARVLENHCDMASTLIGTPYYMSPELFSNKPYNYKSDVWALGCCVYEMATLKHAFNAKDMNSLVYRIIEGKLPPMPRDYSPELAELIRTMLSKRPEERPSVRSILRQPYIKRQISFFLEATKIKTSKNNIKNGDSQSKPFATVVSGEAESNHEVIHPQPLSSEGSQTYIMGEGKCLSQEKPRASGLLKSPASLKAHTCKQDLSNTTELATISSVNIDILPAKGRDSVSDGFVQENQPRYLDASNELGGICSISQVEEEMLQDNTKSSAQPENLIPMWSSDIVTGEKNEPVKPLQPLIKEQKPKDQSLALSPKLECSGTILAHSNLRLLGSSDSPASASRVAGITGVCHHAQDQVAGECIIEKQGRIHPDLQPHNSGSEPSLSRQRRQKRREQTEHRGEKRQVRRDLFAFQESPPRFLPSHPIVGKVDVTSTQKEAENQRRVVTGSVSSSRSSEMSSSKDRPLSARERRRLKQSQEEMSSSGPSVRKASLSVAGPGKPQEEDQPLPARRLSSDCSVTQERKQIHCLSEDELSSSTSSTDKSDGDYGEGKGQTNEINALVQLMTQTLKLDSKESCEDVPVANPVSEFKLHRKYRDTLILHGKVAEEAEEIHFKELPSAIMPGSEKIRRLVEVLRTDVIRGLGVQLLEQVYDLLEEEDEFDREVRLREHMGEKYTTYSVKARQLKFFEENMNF
Sequence of HIPK1 (human) (Q86Z02 whole entry, looked up): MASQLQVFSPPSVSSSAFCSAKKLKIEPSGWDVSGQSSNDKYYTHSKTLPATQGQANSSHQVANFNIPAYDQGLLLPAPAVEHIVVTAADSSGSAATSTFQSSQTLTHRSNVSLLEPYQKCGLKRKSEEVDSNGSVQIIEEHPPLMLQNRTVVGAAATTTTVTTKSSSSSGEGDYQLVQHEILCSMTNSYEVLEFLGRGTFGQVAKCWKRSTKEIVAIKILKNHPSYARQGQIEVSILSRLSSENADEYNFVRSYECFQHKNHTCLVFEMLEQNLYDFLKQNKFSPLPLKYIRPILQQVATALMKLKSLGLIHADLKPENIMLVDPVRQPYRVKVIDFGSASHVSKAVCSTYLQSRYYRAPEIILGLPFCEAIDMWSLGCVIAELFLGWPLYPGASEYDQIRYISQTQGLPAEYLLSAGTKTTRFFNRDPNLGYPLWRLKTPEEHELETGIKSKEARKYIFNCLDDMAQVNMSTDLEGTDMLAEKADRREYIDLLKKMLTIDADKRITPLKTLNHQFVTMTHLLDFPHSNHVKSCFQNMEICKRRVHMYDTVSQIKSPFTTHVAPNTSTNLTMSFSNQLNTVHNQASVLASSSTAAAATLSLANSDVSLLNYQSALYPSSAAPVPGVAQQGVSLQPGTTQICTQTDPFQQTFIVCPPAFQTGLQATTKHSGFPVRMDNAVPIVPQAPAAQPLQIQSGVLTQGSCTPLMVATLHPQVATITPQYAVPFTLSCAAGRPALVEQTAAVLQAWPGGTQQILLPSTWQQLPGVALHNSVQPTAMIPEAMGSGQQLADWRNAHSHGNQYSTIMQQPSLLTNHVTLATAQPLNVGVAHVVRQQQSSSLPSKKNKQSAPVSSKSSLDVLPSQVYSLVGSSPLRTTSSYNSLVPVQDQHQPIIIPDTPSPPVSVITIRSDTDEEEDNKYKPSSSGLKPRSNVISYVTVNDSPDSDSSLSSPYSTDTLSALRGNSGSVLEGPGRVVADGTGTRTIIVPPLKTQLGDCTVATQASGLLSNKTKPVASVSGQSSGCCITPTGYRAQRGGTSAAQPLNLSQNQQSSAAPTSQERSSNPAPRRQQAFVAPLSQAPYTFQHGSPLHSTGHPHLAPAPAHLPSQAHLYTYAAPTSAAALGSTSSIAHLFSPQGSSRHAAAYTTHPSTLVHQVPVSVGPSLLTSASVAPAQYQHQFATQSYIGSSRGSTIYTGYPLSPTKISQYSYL
Sequence of LTK (human) (P29376 whole entry, looked up): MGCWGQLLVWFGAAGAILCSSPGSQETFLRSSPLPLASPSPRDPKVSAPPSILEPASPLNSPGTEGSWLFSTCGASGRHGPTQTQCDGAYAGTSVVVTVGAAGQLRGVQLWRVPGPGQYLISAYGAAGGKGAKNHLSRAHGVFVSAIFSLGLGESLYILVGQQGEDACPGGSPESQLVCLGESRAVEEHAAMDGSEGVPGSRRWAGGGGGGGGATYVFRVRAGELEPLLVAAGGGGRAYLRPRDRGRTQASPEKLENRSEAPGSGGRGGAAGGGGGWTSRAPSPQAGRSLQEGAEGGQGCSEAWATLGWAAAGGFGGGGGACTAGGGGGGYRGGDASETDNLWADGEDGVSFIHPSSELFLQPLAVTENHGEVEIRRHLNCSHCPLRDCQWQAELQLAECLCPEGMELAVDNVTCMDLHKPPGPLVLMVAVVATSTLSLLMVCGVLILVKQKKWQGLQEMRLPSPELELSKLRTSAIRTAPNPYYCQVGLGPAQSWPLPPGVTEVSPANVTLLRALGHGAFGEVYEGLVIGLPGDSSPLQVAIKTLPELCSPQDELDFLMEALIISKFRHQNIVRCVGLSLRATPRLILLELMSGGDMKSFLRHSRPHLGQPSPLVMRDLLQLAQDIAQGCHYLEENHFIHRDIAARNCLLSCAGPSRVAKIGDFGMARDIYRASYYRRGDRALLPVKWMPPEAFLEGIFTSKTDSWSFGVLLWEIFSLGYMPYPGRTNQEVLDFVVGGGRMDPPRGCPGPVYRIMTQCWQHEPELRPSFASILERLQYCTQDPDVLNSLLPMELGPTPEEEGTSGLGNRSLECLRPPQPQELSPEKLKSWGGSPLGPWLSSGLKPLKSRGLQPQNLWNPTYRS
Sequence of DDR2 (human) (Q16832 whole entry, looked up): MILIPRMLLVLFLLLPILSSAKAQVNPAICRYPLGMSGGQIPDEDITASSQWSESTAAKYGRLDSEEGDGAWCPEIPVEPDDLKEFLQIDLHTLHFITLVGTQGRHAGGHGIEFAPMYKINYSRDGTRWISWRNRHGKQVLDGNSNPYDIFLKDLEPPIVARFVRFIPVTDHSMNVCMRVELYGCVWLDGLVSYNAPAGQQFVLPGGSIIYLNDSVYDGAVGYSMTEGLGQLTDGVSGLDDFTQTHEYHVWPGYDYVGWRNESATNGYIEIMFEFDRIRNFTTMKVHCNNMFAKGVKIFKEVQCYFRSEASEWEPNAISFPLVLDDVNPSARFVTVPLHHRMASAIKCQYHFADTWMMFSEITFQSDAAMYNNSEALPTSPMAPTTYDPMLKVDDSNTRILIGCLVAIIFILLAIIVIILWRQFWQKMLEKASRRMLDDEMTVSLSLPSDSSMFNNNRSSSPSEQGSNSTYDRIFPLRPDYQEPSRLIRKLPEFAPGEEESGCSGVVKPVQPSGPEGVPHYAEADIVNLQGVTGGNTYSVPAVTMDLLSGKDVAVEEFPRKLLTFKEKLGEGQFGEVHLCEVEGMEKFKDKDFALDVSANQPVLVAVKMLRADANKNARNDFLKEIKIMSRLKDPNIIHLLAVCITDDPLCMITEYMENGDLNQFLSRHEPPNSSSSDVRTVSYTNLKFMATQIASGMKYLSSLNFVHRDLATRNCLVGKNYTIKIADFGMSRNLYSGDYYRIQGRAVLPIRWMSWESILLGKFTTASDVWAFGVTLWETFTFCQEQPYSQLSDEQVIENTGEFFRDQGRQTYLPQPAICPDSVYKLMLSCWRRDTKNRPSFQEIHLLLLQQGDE
Sequence of EPHB1 (human) (P54762 whole entry, looked up): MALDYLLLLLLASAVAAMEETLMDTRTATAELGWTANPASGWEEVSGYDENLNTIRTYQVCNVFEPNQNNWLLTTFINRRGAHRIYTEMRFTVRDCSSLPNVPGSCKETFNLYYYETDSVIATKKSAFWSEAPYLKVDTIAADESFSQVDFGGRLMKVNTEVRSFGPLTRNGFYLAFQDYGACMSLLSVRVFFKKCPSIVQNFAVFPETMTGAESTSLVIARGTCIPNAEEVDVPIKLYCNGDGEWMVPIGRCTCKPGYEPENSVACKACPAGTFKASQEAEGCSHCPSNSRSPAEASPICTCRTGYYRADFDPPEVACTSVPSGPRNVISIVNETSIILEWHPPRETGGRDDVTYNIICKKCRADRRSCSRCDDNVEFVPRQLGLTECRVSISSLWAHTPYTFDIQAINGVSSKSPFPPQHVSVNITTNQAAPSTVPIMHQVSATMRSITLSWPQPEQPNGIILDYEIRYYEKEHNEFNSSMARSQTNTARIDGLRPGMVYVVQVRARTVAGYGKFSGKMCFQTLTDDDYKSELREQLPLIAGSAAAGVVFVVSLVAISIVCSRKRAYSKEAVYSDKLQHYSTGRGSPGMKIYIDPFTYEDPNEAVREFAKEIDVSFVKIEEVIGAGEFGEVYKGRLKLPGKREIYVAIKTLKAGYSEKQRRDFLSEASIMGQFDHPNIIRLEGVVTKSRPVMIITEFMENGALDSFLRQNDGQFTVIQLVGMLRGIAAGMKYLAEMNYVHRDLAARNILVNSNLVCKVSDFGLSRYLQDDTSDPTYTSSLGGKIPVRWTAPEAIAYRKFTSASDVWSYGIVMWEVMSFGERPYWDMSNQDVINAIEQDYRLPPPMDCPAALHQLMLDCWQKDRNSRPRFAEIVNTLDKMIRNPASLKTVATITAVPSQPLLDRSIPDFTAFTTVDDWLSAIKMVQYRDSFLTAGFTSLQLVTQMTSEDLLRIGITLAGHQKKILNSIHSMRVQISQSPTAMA
Sequence of NEK6 (human) (Q9HC98 whole entry, looked up): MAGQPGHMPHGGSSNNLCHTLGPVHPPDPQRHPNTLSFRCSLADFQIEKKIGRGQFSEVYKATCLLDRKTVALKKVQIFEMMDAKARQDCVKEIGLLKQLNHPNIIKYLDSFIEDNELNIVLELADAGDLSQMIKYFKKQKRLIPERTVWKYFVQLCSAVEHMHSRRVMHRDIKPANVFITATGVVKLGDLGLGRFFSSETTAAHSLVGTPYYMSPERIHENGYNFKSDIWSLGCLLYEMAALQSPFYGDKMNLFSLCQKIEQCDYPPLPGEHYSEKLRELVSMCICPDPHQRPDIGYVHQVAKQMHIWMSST

## CCN(CC)C(=O)c1ccc(Nc2nc(OCC3CCCCC3)c3nc[nH]c3n2)cc1
[1]
  residual activity: 90.2%
[2]
  residual activity: 85.6%
[3]
  residual activity: 30.7%
[4]
  residual activity: 103%
[5]
  residual activity: 68.5%
[6]
  residual activity: 51.1%
[7]
  residual activity: 97.2%
[8]
  residual activity: 104%
[9]
  residual activity: 93.8%
[10]
  residual activity: 99.5%
[11]
  residual activity: 90.6%
[12]
  residual activity: 96.9%
[13]
  residual activity: 84%
[14]
  residual activity: 72.8%
[15]
  residual activity: 61.1%
[16]
  residual activity: 42%
[17]
  residual activity: 103%
[18]
  residual activity: 101%
[19]
  residual activity: 75.4%
[20]
  residual activity: 103%
[21]
  residual activity: 84.9%
[22]
  residual activity: 87.4%
[23]
  residual activity: 89.5%
[24]
  residual activity: 66.1%
[25]
  residual activity: 84.7%
[26]
  residual activity: 106%
[27]
  residual activity: 103%
[28]
  residual activity: 81.6%
[29]
  residual activity: 85.2%
[30]
  residual activity: 96.1%
[31]
  residual activity: 87.9%
[32]
  residual activity: 109%
[33]
  residual activity: 77.2%
[34]
  residual activity: 69.4%
[35]
  residual activity: 98.8%
[36]
  residual activity: 57.9%
[37]
  residual activity: 99.9%
[38]
  residual activity: 92.4%
[39]
  residual activity: 67%
[40]
  residual activity: 75.3%
[41]
  residual activity: 94.5%

## CC(=O)c1ccc(N2CCOCC2)cc1O
[1]
  residual activity: 94%
[2]
  residual activity: 102%
[3]
  residual activity: 104%
[4]
  residual activity: 104%
[5]
  residual activity: 91.8%
[6]
  residual activity: 96.8%
[7]
  residual activity: 96.3%
[8]
  residual activity: 93.9%
[9]
  residual activity: 111%
[10]
  residual activity: 100%
[11]
  residual activity: 107%
[12]
  residual activity: 99.4%
[13]
  residual activity: 97.6%
[14]
  residual activity: 95.5%
[15]
  residual activity: 92.6%
[16]
  residual activity: 90.4%
[17]
  residual activity: 96.3%
[18]
  residual activity: 96.5%
[19]
  residual activity: 103%
[20]
  residual activity: 101%
[21]
  residual activity: 114%
[22]
  residual activity: 101%
[23]
  residual activity: 95.2%
[24]
  residual activity: 102%
[25]
  residual activity: 94.7%
[26]
  residual activity: 97.6%
[27]
  residual activity: 96.2%
[28]
  residual activity: 92.8%
[29]
  residual activity: 90.9%
[30]
  residual activity: 101%
[31]
  residual activity: 103%
[32]
  residual activity: 104%
[33]
  residual activity: 99.7%
[34]
  residual activity: 103%
[35]
  residual activity: 107%
[36]
  residual activity: 99.4%
[37]
  residual activity: 108%
[38]
  residual activity: 106%
[39]
  residual activity: 97.4%
[40]
  residual activity: 107%
[41]
  residual activity: 100%

## CC#CC(=O)Nc1cc2c(Nc3ccc(F)c(Cl)c3)ncnc2cn1
[1]
  residual activity: 88.3%
[2]
  residual activity: 97.9%
[3]
  residual activity: 56.8%
[4]
  residual activity: 104%
[5]
  residual activity: 95.5%
[6]
  residual activity: 98.9%
[7]
  residual activity: 96.6%
[8]
  residual activity: 108%
[9]
  residual activity: 104%
[10]
  residual activity: 104%
[11]
  residual activity: 103%
[12]
  residual activity: 98.9%
[13]
  residual activity: 102%
[14]
  residual activity: 91.3%
[15]
  residual activity: 95.4%
[16]
  residual activity: 98.2%
[17]
  residual activity: 97.4%
[18]
  residual activity: 97.5%
[19]
  residual activity: 92%
[20]
  residual activity: 98.2%
[21]
  residual activity: 96.7%
[22]
  residual activity: 90.9%
[23]
  residual activity: 97.1%
[24]
  residual activity: 93%
[25]
  residual activity: 96.1%
[26]
  residual activity: 101%
[27]
  residual activity: 92.1%
[28]
  residual activity: 94.7%
[29]
  residual activity: 97.1%
[30]
  residual activity: 99.2%
[31]
  residual activity: 85.8%
[32]
  residual activity: 108%
[33]
  residual activity: 99.2%
[34]
  residual activity: 76.2%
[35]
  residual activity: 105%
[36]
  residual activity: 104%
[37]
  residual activity: 99.8%
[38]
  residual activity: 101%
[39]
  residual activity: 97.6%
[40]
  residual activity: 105%
[41]
  residual activity: 100%

## Nc1cccc(-c2cc3c(Oc4cccc(O)c4)ncnc3[nH]2)c1
[1]
  residual activity: 31.2%
[2]
  residual activity: 112%
[3]
  residual activity: 11.1%
[4]
  residual activity: 103%
[5]
  residual activity: 102%
[6]
  residual activity: 94.4%
[7]
  residual activity: 84.6%
[8]
  residual activity: 82.7%
[9]
  residual activity: 91.4%
[10]
  residual activity: 98%
[11]
  residual activity: 48.2%
[12]
  residual activity: 94.9%
[13]
  residual activity: 83.1%
[14]
  residual activity: 77.2%
[15]
  residual activity: 36.1%
[16]
  residual activity: 44%
[17]
  residual activity: 113%
[18]
  residual activity: 90.2%
[19]
  residual activity: 40%
[20]
  residual activity: 99.4%
[21]
  residual activity: 97.5%
[22]
  residual activity: 96.8%
[23]
  residual activity: 95.3%
[24]
  residual activity: 16.8%
[25]
  residual activity: 94.4%
[26]
  residual activity: 114%
[27]
  residual activity: 102%
[28]
  residual activity: 89.1%
[29]
  residual activity: 91.6%
[30]
  residual activity: 99%
[31]
  residual activity: 91.4%
[32]
  residual activity: 29.3%
[33]
  residual activity: 114%
[34]
  residual activity: 57.5%
[35]
  residual activity: 183%
[36]
  residual activity: 142%
[37]
  residual activity: 39.7%
[38]
  residual activity: 100%
[39]
  residual activity: 81.7%
[40]
  residual activity: 79%
[41]
  residual activity: 99.8%

## Cc1ccc(NC2=CC(=O)c3sc(C)nc3C2=O)cc1
[1]
  residual activity: 86.1%
[2]
  residual activity: 87.6%
[3]
  residual activity: 89.2%
[4]
  residual activity: 88.9%
[5]
  residual activity: 102%
[6]
  residual activity: 100%
[7]
  residual activity: 96.9%
[8]
  residual activity: 96.7%
[9]
  residual activity: 108%
[10]
  residual activity: 96.8%
[11]
  residual activity: 102%
[12]
  residual activity: 119%
[13]
  residual activity: 88.6%
[14]
  residual activity: 92.3%
[15]
  residual activity: 97.9%
[16]
  residual activity: 83.9%
[17]
  residual activity: 95.7%
[18]
  residual activity: 106%
[20]
  residual activity: 96.9%
[21]
  residual activity: 96.9%
[22]
  residual activity: 98.2%
[23]
  residual activity: 97.2%
[24]
  residual activity: 88.8%
[25]
  residual activity: 82.4%
[26]
  residual activity: 91.4%
[27]
  residual activity: 91.9%
[28]
  residual activity: 105%
[29]
  residual activity: 93.4%
[30]
  residual activity: 95%
[31]
  residual activity: 95.3%
[32]
  residual activity: 95.6%
[33]
  residual activity: 61.9%
[34]
  residual activity: 88.2%
[35]
  residual activity: 99.1%
[36]
  residual activity: 99.8%
[37]
  residual activity: 96.6%
[38]
  residual activity: 98.5%
[39]
  residual activity: 87.7%
[40]
  residual activity: 91.1%
[41]
  residual activity: 93.2%
